The test system of one assay is Molt-4 cells. The experiment in a line: Cellular localization by fluorescence microscopy in Molt-4 cells. Type of assay: cell-based, human. As to the method:
For investigating the difference in sites of localization between the photosensitizers with and without carbohydrate moieties, the fluorescence light microscopy experiments were performed in Molt-4 and RIF tumor cell lines. In a typical experiment, cells were imaged at 100× on an inverted fluorescence microscope (Carl Zeiss Inc. Axiovert 35.W.Germany) with a charged-coupled device camera (Dage-MTI, model 104722-02). Images were captured and processed by computer using Image-1 image processing software (Universal Imaging Corp., version 4.0, WestChester, Pa.). The photosensitizer fluorescence was assessed by using 530-585 nm excitation and 615 nm long-pass filter to measure emission while 338-378 nm excitation for DPH, and a 450 nm emission filter for emission (400 nm dichroic). […] In addition, […]1-(4-trimethylammonium)-6-phenyl-1,3,5-hexatriene (TMA-DPH), a hydrophobic fluorescent probe which interacts with living cells by instantaneous incorporation into plasma membrane and becomes fluorescent (Illinger, D., and Kuhry, J. G., The Kinetic Aspects of Intracellular Fluorescence Labeling with TMA-DPH Support the Maturation Model for Endocytosis in L929 Cells, The Journal of Cell Biology, 125:783-794, 1994), was added for the last 5 min of the incubation, cells were washed once with PBS and transferred to a microscope slide for imaging. […]

Another assay concerns the target Gal-1 (Homo sapiens, UniProt P09382). Nature of the assay: Gal-1 inhibition binding, indirect ELISA (Gal-1-HRP conjugate on asialofetuin-coated wells). As for the experimental part: Cell. Biochem., 43, 43-57, 1990) to eliminate the thiol requirement for retention of carbohydrate-binding activity. Coupling of alkylated galaptin to Horseradish peroxidase (HRP) was carried out by a two-step glutaraldehyde procedure as described by Engvall (Engvall E., Enzyme Immunoassay ELISA and EMIT, Methods in Enzymology, 70, 419-439, 1980). The galactin-peroxidase conjugate was prepared in 50% glycerol-1% BSA and stored at -20° C. until use. The binding of the Gal-1 to photosensitizers with and without the galactose moiety was measured by an indirect ELISA method as described by Chen et al. […] The microtiter wells (Dynatech Laboratories, Chantilly, Va.) were coated with 2 μg asial fetuin (Sigma) in 100 μl of 0.1M sodium carbonate, 0.2% NaN3, pH 9.6 at 37° C. for 3h. The plates were tightly covered with parafilm and stored at 4° C. for use within three weeks. The optimal dilution for Gal-1HRP conjugate was determined by checker-board titration. For studying the effect of saccharides and their conjugates, 60 μl aliquots of diluted Gal-1-HRP conjugate containing 1.4 μg of Gal-1 were mixed separately in duplicate with 60 μl dilute buffer as well as serially diluted test compounds and incubated for 1 h at 37° C. A 100 μl aliquot was transferred to the microtiter wells, which had been coated with […] Fetuin, blocked and washed. The plates were then incubated for 1 h at 37° C. followed by color development with ABTS (Kirkegaard & Perry lab. Gaithersburg, Md.) and reading at 405 nm on an ELISA reader.
On the technique in general: An ELISA detects its analyte on a solid surface through an enzyme-linked reagent.

Assay [1] concerns Molt-4 human leukemic T-cells. Nature of the assay: In vitro photosensitizing efficacy in Molt-4 cells (MTT). Type of assay: cell-based. To be noted: Molt-4 cells; for effect of free lactose on PDT efficacy of the photosensitizer: photosensitizer with lactose in a ratio of 1:100, without washing. As for the experimental part: Both cell lines are known to have some expression for Galectin-1 ([…]., Baum, L. G. and Brewer, C. F., Multivalent Protein-carbohydrate Interactions. A New […] for Super Molecular Assembly and Signal Transduction, Biochemistry, 40:3009-3015, 2001). The Molt-4 cells were grown in RPMI 1640 5% FCS (Fetal calf serum) in 100% humidity with 5% CO2. Cells were transferred to phenol red free (PRF) RPMI 1640 media with 1% FCS and plated at 2.5×10^4 cells/well. After 3 hours incubation in the dark, the cells were washed once with PBS and re-suspended in prf RPMI 1640 with 1% FCS. These cells were then illuminated with a […] Quartz Halogen Lamp with IR and bandpass dichroic filters to allow light between 400 nm-700 nm, at a dose rate of 16 mW/cm^2 at 695 nm. The RIF tumor cells were grown in alpha-DMEM with 10% fetal calf serum, penicillin and streptomycin. Cells were maintained in 5% CO2, 95% air and 100% humidity. […] After overnight incubation to allow the cells to attach the photosensitizers 14 were individually added at variable concentrations. After a 3 hr incubation in the dark at 37° C., the cells were washed once with PBS, then irradiated with the same light source as above (Molt-4 procedure), and the optimal cell kill was obtained at a concentration of 1.0 μM. After PDT the cells were washed once and placed in complete media and incubated for 48 hrs. […] Louis, Mo.) was added to each well (Kessel, D., Luo, Y., Photodynamic Therapy: A Mitochondrial Inducer of Apoptosis, Cell Death Differ. 6:28-35, 1999; MacDonald, I., Morgan, […]., Litchfield, D. J. Dougherty, T. J., Subcellular Localization Patterns and their Relationship to Photodynamic Activity of Pyropheophorbide-a Derivatives, Photochem. Photobiol., 70, 789-997, 1999). After 4 hr incubation at 37° C. the MTT+media were removed and 100 μl DMSO was added to solubilize the formazin crystals. The 96-well plate was read on a microtiter plate reader (Miles Inc. Titertek Multiscan Plus MK II) at an absorbance of 560 nm. The results were plotted as percent survival of the corresponding dark (drug no light) control for each compound tested. Each data point represents the mean from 3 separate experiments, and the error bars are the standard deviation. Each experiment was done with 5 replicate wells. […] The cells were then washed once with phosphate buffer saline (PBS), carbohydrate conjugates were then added, and the cells were again incubated for an additional 3 hrs. After treating with light, the cells were re-suspended in fresh media and incubated for 48 hrs. MTT was added to the cells and incubated for an additional 4 hrs. Dimethylsulfoxide (100 μl) was then added to each well to dissolve the formazin crystals. The plates were read on a 96 well plate reader at an absorbance of 560 nm. The data are in replicates of 6 wells and are normalized to control cells (light, no drug). In another set of experiments, a similar procedure was followed, except, the cells were not washed before the light treatment. […] Louis, Mo.) was added to the cells and incubated for an additional 4 hrs. Dimethylsulfoxide (100 μl) was then added to each well to dissolve the formazin crystals. The plates were read on a 96 well plate reader (Miles Inc. Titertek Multiscan Plus MK II) at an absorbance of 560 nm. The data are in replicates of 6 wells and are normalized to control cells (light, no drug).

“And” between values parts separate entries of the source, which are not always exact repeats. Identical values can stand only once.

What is called inhibition is how much of the control response was suppressed. A lower inhibition goes with a response near the control.

Sequence of Gal-1 (P09382 whole entry): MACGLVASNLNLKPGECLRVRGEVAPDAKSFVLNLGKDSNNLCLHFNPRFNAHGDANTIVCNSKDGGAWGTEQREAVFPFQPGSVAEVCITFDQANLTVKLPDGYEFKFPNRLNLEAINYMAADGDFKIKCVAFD

Turning to `C=C(C=CCO[C@@H]1O[C@H](CO)[C@@H](O[C@@H]2O[C@H](CO)[C@H](O)[C@H](O)[C@H]2O)[C@H](O)[C@H]1O)CN1C(=O)c2c3nc(cc4[nH]c(cc5nc(cc6[nH]c2c(c6C)C1=O)C(CC)=C5C)c(CC)c4C)C(C)C3CCC(=O)OC` (mixture of isomers) [4a, Lactose-Chlorin conjugate joined with diene linkage], the “fluorescence in presence of free lactose” value in the assay on Molt-4 cells (lactose 100 μM) is “No fluorescence was observed”. Also, at Gal-1, the “increase in I50 inhibition binding affinity compared to the galactose conjugate 2” value was determined as 40 fold. Besides, at Gal-1 (ELISA, read-out: I50, inhibition of Gal-1 binding), the IC50 is 0.54 µM and 0.5 µM. For the same compound, 450 µM produced 29% inhibition at Gal-1 (at 450 μM). The “in vitro photosensitizing efficacy (in words)” value in assay [1] (2.0 μM, 2a, 3a compared to 1a, 4a compared to 2a and 3a) was “better pbotosensitizer”. Also, in assay [1], the “effect of free lactose on PDT efficacy of the photosensitizer” value is listed as “complete inhibition in PDT efficacy”.

On to “Mesopurpurin-18-N-methyl-(2′-butadiene)imide [1a]”, for which the cellular localization entry with Molt-4 cells (incubated for 3 hrs) is reported as “intracellular localization”. Also, the “inhibition of Gal-1 binding” value at Gal-1 (at 450 μM) is listed as 29%. The “effect of free lactose on PDT efficacy of the photosensitizer” value in assay [1] is given as “did not produce any change in photocytotoxic ability”.

(Values after patent US6849607B2, “Galectin recognized photosensitizers for photodynamic therapy” (Health Research, Inc., priority 2001, dated 2005).)
